From patent US12162888B2, “Carboxamides as ubiquitin-specific protease inhibitors” (Valo Early Discovery, Inc., priority 2018, dated 2024)

System: human eosinophil EOL-1 (DSMZ no. ACC 386) cells
Assay: In Vivo Xenograft Studies, Example A-2
Conditions: EOL-1 cells subcutaneous in flank of mice; first test compound 50-120 mg/kg orally or subcutaneously, second test compound 40 or 60 mg/kg orally twice per day; versus vehicle (FIG. 2)
Experimental: Example A-2: In Vivo Xenograft Studies
Mice were injected subcutaneously in the flank with human eosinophil EOL-1 (DSMZ no. ACC 386) cells (NCI). Injections with cells (circles, FIG. 2A) and with vehicle alone (triangles, FIG. 2B) were monitored, and when tumors reached a critical size (for example, about 1000 mm^3), mice were randomized into treatment groups, including vehicle control and reference standard groups. The groups, as shown in FIG. 2B are as follows: Group 1, vehicle administered orally every other day; Group 2, first test compound ((S)-amino-N-(5-fluoro-7-(piperazin-1-yl)chroman-3-yl)-6-methylthieno[2,3-b]pyridine-2-carboxamide) at 120 mg/kg, administered orally every other day; Group 3, first test compound at 80 mg/kg, administered orally every other day; Group 4, first test compound at 80 mg/kg, administered subcutaneously twice per day, every other day thereafter; Group 5, first test compound at 60 mg/kg, administered subcutaneously twice per day for four consecutive days, with no administration for three days. […] The mice were weighed and tumors measured using vernier calipers on indicated days. Tumor volume was calculated according to the formula (length×width^2)/2.

Question: How did the “tumor growth (tumor volume, (length×width^2)/2)” value turn out when `CO[C@H]1CN(c2ccc3c(n2)CC[C@H](NC(=O)c2sc4nc(C)cnc4c2N)C3)C[C@@H]1N` [second test compound, 7-amino-N-[(6S)-2-[(3S,4S)-3-amino-4-methoxypyrrolidin-1-yl]-5,6,7,8-tetrahydroquinolin-6-yl]-3-methylthieno[2,3-b]pyrazine-6-carboxamide] was run?
Answer: slowing of tumor growth over time
